PubChem BioAssay AID1053134 (The Scripps Research Institute Molecular Screening Center, 2014)
Calls of active or inactive are those of the source. How the calls were made is not given here.

Biological target: methionyl-tRNA synthetase (Trypanosoma brucei brucei)
Experiment: inhibition of trypanosomal methionyl-tRNA synthetase – biochemical, fluorescence polarization, dose response, round 3, orthogonal assay for T. brucei MetRS inhibitor project, late-stage follow-up (AID 1053134)
Conditions: recombinant T. brucei MetRS

IC50 | SMILES
521 nM | CCN(CC)C(=O)C(=O)c1cn(CC(=O)Nc2cc(Oc3ccccc3OC)cc(C(F)(F)F)c2)c2ccccc12
477 nM | CCN(CC)C(=O)C(=O)c1cn(CC(=O)Nc2cc(Oc3ccc(OC)cc3)cc(C(F)(F)F)c2)c2ccccc12
145 nM | CCN(CC)C(=O)C(=O)c1cn(CC(=O)Nc2cc(Oc3ccccc3)cc(C(F)(F)F)c2)c2ccccc12
381 nM | CCN(CC)C(=O)C(=O)c1cn(CC(=O)Nc2cc(Oc3ccccc3F)cc(C(F)(F)F)c2)c2ccccc12
632 nM | CCN(CC)C(=O)C(=O)c1cn(CC(=O)Nc2cc(Oc3ccc(F)cc3)cc(C(F)(F)F)c2)c2ccccc12

The next lines start with the compound.

SMILES | IC50
CCN(CC)C(=O)Cc1cn(CC(=O)Nc2cccc(C(F)(F)F)c2)c2ccccc12 | > 119000 nM (inactive)
CCN(CC)C(=O)C(=O)c1cn(CCNc2cc(Oc3ccccc3)cc(C(F)(F)F)c2)c2ccccc12 | > 119000 nM (inactive)
O=C(Cn1cc(C(=O)C(=O)NCc2ccccc2)c2ccccc21)Nc1cc(Oc2ccccc2)cc(C(F)(F)F)c1 | inactive
O=C(Cc1ccc(Nc2nc3ccc(Br)cc3[nH]2)cc1)NCCc1cccs1 | inactive
CCN(CC)C(=O)C(=O)c1cn(CC(=O)Nc2cccc(C(F)(F)F)c2)c2ccccc12 | 360 nM
Nc1c(Cl)ncnc1Nc1ccc(C(=O)O)cc1 | 8500 nM
CCN(CC)C(=O)C(=O)c1cn(CCNc2cccc(C(F)(F)F)c2)c2ccccc12 | > 119000 nM (inactive)
